Assay results taken from the supplement of paper PMC10307832.

Legend:
Experiment in all cases: relative viability (nuclei count vs DMSO), 5 days (fraction); higher = more cells survive
17-AAG + Trametinib = compound: C=CCNC1=C2C[C@@H](C)C[C@H](OC)[C@H](O)[C@@H](C)/C=C(\C)[C@H](OC(N)=O)[C@@H](OC)/C=C\C=C(/C)C(=O)NC(=CC1=O)C2=O [17-AAG] + CC(=O)Nc1cccc(-n2c(=O)n(C3CC3)c(=O)c3c(Nc4ccc(I)cc4F)n(C)c(=O)c(C)c32)c1 [Trametinib] (partner 0.02 µM)
Summary of the method: (§1)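 Relative viability is defined as nuclei in treated wells over nuclei in vehicle wells. Duplicate plates were run and medians reported. Lung cancer cell lines in 1536-well plates were dosed by pin tool one day after seeding, with one drug or with a fixed anchor-drug dose plus five library-drug doses (not always all listed) in √10 steps, and nuclei were counted after 5 days.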

17-AAG + Lapatinib = compound: C=CCNC1=C2C[C@@H](C)C[C@H](OC)[C@H](O)[C@@H](C)/C=C(\C)[C@H](OC(N)=O)[C@@H](OC)/C=C\C=C(/C)C(=O)NC(=CC1=O)C2=O [17-AAG] + CS(=O)(=O)CCNCc1ccc(-c2ccc3ncnc(Nc4ccc(OCc5cccc(F)c5)c(Cl)c4)c3c2)o1 [Lapatinib] (partner 2 µM)
Summary of the method: as §1

17-AAG + Olaparib = compound: C=CCNC1=C2C[C@@H](C)C[C@H](OC)[C@H](O)[C@@H](C)/C=C(\C)[C@H](OC(N)=O)[C@@H](OC)/C=C\C=C(/C)C(=O)NC(=CC1=O)C2=O [17-AAG] + O=C(c1cc(Cc2n[nH]c(=O)c3ccccc23)ccc1F)N1CCN(C(=O)C2CC2)CC1 [Olaparib] (partner 8 µM)
Summary of the method: as §1

17-AAG + Phenformin = compound: C=CCNC1=C2C[C@@H](C)C[C@H](OC)[C@H](O)[C@@H](C)/C=C(\C)[C@H](OC(N)=O)[C@@H](OC)/C=C\C=C(/C)C(=O)NC(=CC1=O)C2=O [17-AAG] + N=C(N)NC(=N)NCCc1ccccc1 [Phenformin] (partner 250 µM)
Summary of the method: as §1

| Cell Line | relative viability (17-AAG + Trametinib; first compound 0.00128 µM) | relative viability (17-AAG + Trametinib; first compound 0.004048 µM) | relative viability (17-AAG + Trametinib; first compound 0.0128 µM) | relative viability (17-AAG + Trametinib; first compound 0.04048 µM) | relative viability (17-AAG + Trametinib; first compound 0.128 µM) | relative viability (17-AAG + Lapatinib; first compound 0.00128 µM) | relative viability (17-AAG + Lapatinib; first compound 0.004048 µM) | relative viability (17-AAG + Lapatinib; first compound 0.0128 µM) | relative viability (17-AAG + Lapatinib; first compound 0.04048 µM) | relative viability (17-AAG + Lapatinib; first compound 0.128 µM) | relative viability (17-AAG + Olaparib; first compound 0.00128 µM) | relative viability (17-AAG + Olaparib; first compound 0.004048 µM) | relative viability (17-AAG + Olaparib; first compound 0.0128 µM) | relative viability (17-AAG + Olaparib; first compound 0.04048 µM) | relative viability (17-AAG + Olaparib; first compound 0.128 µM) | relative viability (17-AAG + Phenformin; first compound 0.00128 µM) | relative viability (17-AAG + Phenformin; first compound 0.004048 µM) | relative viability (17-AAG + Phenformin; first compound 0.0128 µM) | relative viability (17-AAG + Phenformin; first compound 0.04048 µM) | relative viability (17-AAG + Phenformin; first compound 0.128 µM) |
| --- | --- | --- | --- | --- | --- | --- | --- | --- | --- | --- | --- | --- | --- | --- | --- | --- | --- | --- | --- | --- |
| NCI-H650 | 0.983 | 1.03 | 0.934 | 0.551 | 0.224 | 0.982 | 1.05 | 0.62 | 0.333 | 0.215 | 0.392 | 0.355 | 0.412 | 0.212 | 0.0846 | 0.445 | 0.459 | 0.421 | 0.308 | 0.228 |
| LC-2-ad | 0.974 | 0.954 | 0.875 | 0.408 | 0.223 | 1.01 | 0.877 | 0.548 | 0.126 | 0.0893 | 0.751 | 0.728 | 0.643 | 0.475 | 0.225 | 0.476 | 0.523 | 0.273 | 0.258 | 0.227 |
| NCI-H1793 | 0.36 | 0.318 | 0.273 | 0.18 | 0.142 | 0.447 | 0.434 | 0.35 | 0.217 | 0.156 | 0.903 | 0.594 | 0.184 | 0.198 | 0.141 | 0.349 | 0.391 | 0.229 | 0.146 | 0.0817 |
| HCC-827 | 0.508 | 0.508 | 0.502 |  | 0.311 | 0.225 | 0.216 | 0.193 |  | 0.259 | 0.698 | 0.755 | 0.769 |  | 0.331 | 0.368 | 0.447 | 0.363 |  | 0.251 |
| HCC-78 | 0.744 | 0.593 | 0.71 | 0.663 | 0.359 | 1.12 |  | 0.994 | 0.603 | 0.296 | 0.806 | 0.832 | 1.07 | 0.681 | 0.308 | 0.644 | 0.818 | 0.676 | 0.553 | 0.351 |
| NCI-H2085 | 0.608 | 0.607 | 0.604 | 0.594 | 0.314 | 0.784 | 0.802 | 0.812 | 0.875 | 0.527 | 0.869 | 0.76 | 0.78 | 0.748 | 0.674 | 0.688 | 0.734 | 0.68 | 0.595 | 0.406 |
| PC-3 [JPC-3] | 0.681 | 0.711 | 0.68 | 0.472 | 0.551 | 0.486 | 0.442 | 0.444 |  | 0.472 | 1.23 | 1.17 | 1.16 | 0.581 | 0.697 | 0.481 | 0.472 | 0.485 |  | 0.468 |
| NCI-H2342 | 0.8 | 0.799 | 0.79 | 0.631 | 0.7 |  |  |  |  |  | 0.506 | 0.4 | 0.487 | 0.437 | 0.374 | 0.562 | 0.792 | 0.554 | 0.398 | 0.379 |
| A-427 | 0.799 | 0.759 | 0.946 | 0.419 | 0.282 | 1.04 | 1.12 | 1.05 | 1.12 | 0.607 | 0.814 | 0.686 | 0.806 | 0.606 | 0.241 | 0.353 | 0.347 | 0.374 | 0.271 | 0.167 |
| ABC-1 |  |  |  |  |  | 0.968 | 1.03 | 1.06 | 1.54 | 1.12 | 0.677 | 0.847 | 0.737 | 0.954 | 0.486 | 0.212 | 0.261 | 0.255 | 0.246 | 0.261 |
| ChaGo-K-1 | 0.918 | 0.873 | 0.767 | 0.857 | 0.735 |  |  |  |  |  | 0.439 | 0.453 | 0.388 | 0.366 | 0.257 | 0.444 | 0.587 | 0.422 | 0.273 | 0.163 |
| EBC-1 |  |  |  |  |  | 0.217 | 0.234 | 0.192 | 0.2 | 0.2 | 0.676 | 0.407 | 0.13 | 0.142 | 0.126 |  |  |  |  |  |
| A549 |  |  |  |  |  | 0.99 | 0.548 | 0.129 | 0.0692 | 0.0593 | 0.336 | 0.338 | 0.0515 | 0.0272 | 0.0363 | 0.154 | 0.0295 | 0.0354 | 0.0477 | 0.03 |
| SW 900 | 0.587 | 0.513 | 0.208 | 0.128 | 0.153 |  |  |  |  |  | 0.892 | 0.491 | 0.244 | 0.192 | 0.163 | 0.577 | 0.37 | 0.13 | 0.0856 | 0.0981 |
| NCI-H1703 |  |  |  |  |  | 0.998 | 0.315 | 0.182 | 0.176 | 0.208 | 0.512 | 0.183 | 0.144 | 0.164 | 0.105 |  |  |  |  |  |
| LCLC-103H | 0.711 | 0.692 | 0.661 | 0.739 | 0.669 |  |  |  |  |  | 0.841 | 0.745 | 0.755 | 0.823 | 0.831 | 0.351 | 0.345 | 0.3 | 0.346 | 0.325 |
| NCI-H1563 |  |  |  |  |  | 0.878 | 0.729 | 0.567 | 0.606 | 0.618 |  |  |  |  |  | 0.657 | 0.594 | 0.52 | 0.464 | 0.473 |
